# Measurements reported in US6476044B1, “Use of morphine derivatives as medicaments for the treatment of neuropathic problems” (Gruenenthal GmbH, priority 2000, dated 2002).
# Structures can show the parent of a compound that is named as a salt. Where two headings read alike, the source gives them in different places.
# How the values were obtained:
# ORL1 receptor [1] = target: T1, ORL1 receptor (Homo sapiens, UniProt P41146); assay: Receptor binding assay with 3H-nociceptin/orphanin FQ using membranes of recombinant CHO-ORL1 cells; set-up: expressed in transfected cells; host or cells: recombinant CHO-ORL1 cells (membranes)
# Protocol: Furthermore a receptor binding assay with ^3H-nociceptin/ orphanin FQ was carried out with the compounds according to the invention using membranes of recombinant CHO-ORL1 cells. This test system was implemented according to the method proposed by Ardati et al. (Mol. Pharmacol., 51, 1997, pp. 816-824). The concentration of ^3H-N/OFQ in these experiments was 0.5 nM. The binding assays were performed in each case with 20 μg of membrane protein per 200 μl of batch in 50 mM of Hepes, pH 7.4, 10 mM MgCl2 and 1 mM EDTA. The binding to the ORL1 receptor was determined using in each case 1 mg of WGA-SPA beads (Amersham-Pharmacia, Freiburg) by incubating the batch for one hour at room temperature followed by measurement in a Trilux scintillation counter (Wallac, Finland). The affinity is given as the Ki value.
# ORL1 receptor [2] = target: T1, ORL1 receptor; assay: ORL1 reporter gene assay, agonist test (inhibition of cAMP-dependent luciferase formation); type: cell-based; set-up: A cDNA coding for the ORL1 receptor was cloned using standard methods from THP-1 cells; expressed in transfected cells; host or cells: CHO-K1/pSE66/K9/pZeoORL17/K21; details: agonist potency: concentration at semi-maximum inhibition of luciferase formation; CHO-K1 cells expressing human ORL1
# Excerpt: (§1) The morphinan derivatives of the general formula I according to the invention were identified with a reporter gene system as ORL1 receptor agonists or as ORL1 receptor antagonists. This reporter gene system is based on the expression of the human ORL1 receptor in CHO-K1 cells, which carry a cAMP-sensitive luciferase gene (Wnendt et al., Regulatory Peptides, 80, 1999, p. 127 the entire disclosure of which is incorporated herein by reference). The formation of cAMP is induced by forskolin, an adenylate cyclase activator.
# Also, they inhibit in a concentration-dependent manner luciferase formation due to the binding to the ORL1 receptor. The potency, expressed as the IC50 value, indicates the concentration at which the semi-maximum effect of the agonist is reached.
# (§2) The reporter gene system was constructed as follows:
# A cDNA coding for the ORL1 receptor was cloned using standard methods from THP-1 cells (European Cell Culture Collection, Porton Down, Great Britain) of a human monocyte cell line and integrated into the plasmid pZeoSV (Invitrogen, Leek, Netherlands). This plasmid, pZeoORL17, was used for the transfection of a cell line, CHO-K1/pSE66/K9, that contains the cAMP reporter plasmid pSE66. […]
# ORL1 receptor [3] = target: T1, ORL1 receptor; assay: ORL1 reporter gene assay, antagonist test (cAMP-sensitive luciferase, forskolin-induced, in presence of 10 nM nociceptin/orphanin FQ); type: cell-based; set-up: A cDNA coding for the ORL1 receptor was cloned using standard methods from THP-1 cells; expressed in transfected cells; host or cells: CHO-K1/pSE66/K9/pZeoORL17/K21
# Excerpt: as §1
# The inhibition of luciferase formation due to the agonists is lifted to the extent that the antagonist binds to the ORL1 receptor. […] The effect of the antagonists is described by the pKB value.
# as §2
# A cDNA coding for the ORL1 receptor was cloned using standard methods from THP-1 cells (European Cell Culture Collection, Porton Down, Great Britain) of a human monocyte cell line and integrated into the plasmid pZeoSV (Invitrogen, Leek, Netherlands). This plasmid, pZeoORL17, was used for the transfection of a cell line, CHO-K1/pSE66/K9, that contains the cAMP reporter plasmid pSE66. The plasmid pSE66 was constructed on the basis of the plasmid pMAMneo-LUC (Clontech, Palo Alto, Calif.) by replacing the RSV promoter of this plasmid by a promoter region in which six CRE elements (cAMP-responsive elements, Comb et al., Nature, 323, 1986, pp. 353-356; Montminy et al., Proc. Natl. Acad. Sci. USA, 83, 1986, pp. 6682-6686; Short et al., J. Biol. Chem., 261, 1986, pp. 9721-9726) lie upstream of a promoter. The SV40 promoter derives from the plasmid pGL2-promoter (Promega, Madison, Wis.). The promoter region constructed in this way controls in the plasmid pSE66 the expression of the luciferase gene from pMAMneo-LUC. Furthermore, pSE66 carries a G418 resistance gene under the control of a further SV40 promoter. The cell line CHO-K1 (European Cell Culture Collection, Porton Down, Great Britain) was rendered stable with pSE66 and the clone CHO-K1/pSE66/K9 was selected for the transfection with pZeoORL17. […]
# [4] = 0.5 nM 3H-N/OFQ, CHO-ORL1 membranes, WGA-SPA beads, one hour at room temperature, read-out: Ki (nM) ORL1 Binding Assay
# [5] = read-out: PKB ORL1 Reporter Gene Assay (converted)
# T1 sequence (P41146 whole entry): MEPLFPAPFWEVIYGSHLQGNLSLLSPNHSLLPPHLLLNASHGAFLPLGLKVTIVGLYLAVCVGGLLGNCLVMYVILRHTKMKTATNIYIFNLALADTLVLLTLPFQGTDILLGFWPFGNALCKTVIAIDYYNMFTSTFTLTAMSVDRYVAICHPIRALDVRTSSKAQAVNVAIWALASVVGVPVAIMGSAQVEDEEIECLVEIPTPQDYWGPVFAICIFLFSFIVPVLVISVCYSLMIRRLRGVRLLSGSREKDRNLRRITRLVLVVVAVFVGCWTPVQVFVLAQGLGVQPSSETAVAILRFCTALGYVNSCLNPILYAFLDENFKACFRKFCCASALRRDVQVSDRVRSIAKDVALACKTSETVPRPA
Compound,Ki (ORL1 receptor [1]; [4]),IC50 (ORL1 receptor [2]),Ki (ORL1 receptor [1]),Kb (ORL1 receptor [3]),Kb (ORL1 receptor [3]; [5])
"17-cyclopropylmethyl-6,7-didehydro-4,5α-epoxy-3-hydroxy-14-(methoxynaphthalene)1′-(β-methylnaphthalene)indolo-[6,7:2,′3′]-morphinan hydrochloride [Example 4]",982 nM,31.2 nM,,,
"17-cyclopropylmethyl-6,7-didehydro-4,5α-epoxy-14-hydroxy-3-benzyloxy-1′-(p-methoxycarbonylmethylphenyl)-indolo-[6,7:2,′3′]-morphinan hydrochloride [Example 5]",,25.8 nM,,,
"C=CCN1CCC23c4c5ccc(O)c4OC2c2c(c4ccccc4n2Cc2ccccc2Cl)CC3(O)C1C5 (stereo not drawn) [Example 1, 17-allyl-6,7-didehydro-4,5α-epoxy-3,14-dihydroxy-1′-(o-chlorobenzyl)indolo-[6,7:2,′3′]-morphinan hydrochloride]",,,449 nM,42.7 nM,
"C=CCN1CCC23c4c5ccc(O)c4OC2c2c(c4ccccc4n2Cc2cccc(Cl)c2)CC3(OCc2cccc(Cl)c2)C1C5 (stereo not drawn) [Example 2, 17-allyl-6,7-didehydro-4,5α-epoxy-3-hydroxy-14-(m-chloromethoxyphenyl)1′-(m-chlorobenzyl)indolo[6,7:2,′3′]-morphinan hydrochloride]",1080 nM,,,,102 nM
"Oc1ccc2c3c1OC1c4c(c5ccccc5n4Cc4ccccc4Cl)CC4(OCc5ccccc5Cl)C(C2)N(CC2CC2)CCC314 (stereo not drawn) [Example 3, 17-cyclopropylmethyl-6,7-didehydro-4,5α-epoxy-3-hydroxy-14-(o-chloromethoxyphenyl)1′-(o-chlorobenzyl)-indolo[6,7:2,′3′]-morphinan hydrochloride]",718 nM,,,,407 nM
